Results filed as inconclusive are left out. Activity calls are given as the source filed them.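 Rule for the calls: active = compound giving calcium release at least equal to the estrogen response, or cutting estrogen-driven calcium release by 60% or more; inconclusive = compound glowing brighter than the detergent maximum; inactive = the rest.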
biological target: G-protein coupled estrogen receptor 1 (Homo sapiens) (UniProt Q99527); assay: GPR30 agonists and antagonists by calcium flux, primary screen, HL-60 cells, Indo-1 fluorescence, 10 µM (AID 1213); details: Indo-1 calcium mobilization, at 10 µM, stronger effect = higher value

**Q.** With `CCCCOC(=O)c1c(C)oc2ccc(NS(=O)(=O)c3ccc4c5c(cccc35)C(=O)N4)cc12` as the compound, how does the calcium mobilization (agonist) read?
**A.** The calcium mobilization (agonist) was 0% (inactive).

**Q.** For `Fc1ccc2c(c1)[C@H]1OCC[C@H]1[C@@H](c1ccco1)N2`, which calcium mobilization (agonist) is on record?
**A.** The calcium mobilization (agonist) was 100%.

**Q.** Which calcium mobilization (agonist) does the source give for `Cc1ccc2c(c1Cl)NC(C(=O)O)C1CC(Sc3ccccc3[N+](=O)[O-])C(Cl)C21` (centres undefined) here?
**A.** The calcium mobilization (agonist) was 0%.

**Q.** With `O=C(O)c1ccc2c(c1)C1C(Cl)C(Sc3ccccc3[N+](=O)[O-])CC1C(c1cccc([N+](=O)[O-])c1)N2` (centres undefined) as the compound, how does the calcium mobilization (agonist) read?
**A.** Its calcium mobilization (agonist) is 0%.

**Q.** `Oc1ccc(-c2nc3ccc4ccccc4c3c3c2CCC3)cc1O` was tested. Which calcium mobilization (agonist) did it give?
**A.** Its calcium mobilization (agonist) is 0% (inactive).

**Q.** `CCCC1Nc2ccc(C(=O)O)cc2C2C=CCC12` (centres undefined) was tested. Which calcium mobilization (agonist) did it give?
**A.** The calcium mobilization (agonist) was 0% (inactive).

**Q.** How did the calcium mobilization (agonist) turn out when `CC(C)c1ccc2c(c1)[C@H]1OCC[C@H]1[C@@H](c1cccs1)N2` was run?
**A.** The calcium mobilization (agonist) was 0% (inactive).

**Q.** For `CCCCCCNC(=O)c1cc(-c2ccco2)nc2ccccc12`, which calcium mobilization (agonist) is on record?
**A.** Its calcium mobilization (agonist) is 0% (inactive).

**Q.** With `CC(C)C1Nc2ccc(C(=O)O)cc2C2C=CCC21` (centres undefined) as the compound, how does the calcium mobilization (agonist) read?
**A.** Its calcium mobilization (agonist) is 0%.

**Q.** Which calcium mobilization (agonist) does the source give for `O=C(O)c1ccc2c(c1)[C@@H]1C=CC[C@@H]1[C@H](c1ccccn1)N2` here?
**A.** The calcium mobilization (agonist) was 0% (inactive).

**Q.** `Cc1nn(-c2ccccc2)c(/N=C/c2ccc(O)cc2)c1-c1ccccc1` was tested. Which calcium mobilization (agonist) did it give?
**A.** Its calcium mobilization (agonist) is 0% (inactive).

**Q.** Which calcium mobilization (agonist) does the source give for `O=C(Cc1cccs1)Nc1ccc(S(=O)(=O)Nc2ncccn2)cc1` here?
**A.** The calcium mobilization (agonist) was 0% (inactive).

**Q.** How did the calcium mobilization (agonist) turn out when `CCn1nnc(NC(=O)CSc2ccc(Cl)cc2)n1` was run?
**A.** The calcium mobilization (agonist) was 0% (inactive).

**Q.** `CC(=O)c1ccc2c(c1)C1C(Cl)C(Sc3ccccc3[N+](=O)[O-])CC1C(c1ccccc1)N2` (centres undefined) was tested. Which calcium mobilization (agonist) did it give?
**A.** Its calcium mobilization (agonist) is 0% (inactive).

**Q.** With `O=S(=O)(NCCc1csc(-c2cccnc2)n1)c1ccc(Cl)s1` as the compound, how does the calcium mobilization (agonist) read?
**A.** The calcium mobilization (agonist) was 100%.

**Q.** With `O=C(O)c1ccc(Cl)c2c1C1C=CCC1C(c1ccccn1)N2` (centres undefined) as the compound, how does the calcium mobilization (agonist) read?
**A.** Its calcium mobilization (agonist) is 50% (inactive).

**Q.** How did the calcium mobilization (agonist) turn out when `Cc1nnc(SCC(=O)NC(=O)NCc2ccco2)n1Cc1ccccc1` was run?
**A.** The calcium mobilization (agonist) was 0% (inactive).

**Q.** `Nc1ncnc2c1ncn2C1CCC(CO)C(O)C1` (centres undefined) was tested. Which calcium mobilization (agonist) did it give?
**A.** The calcium mobilization (agonist) was 0% (inactive).

**Q.** Which calcium mobilization (agonist) does the source give for `COc1cc(C2Nc3c(F)cccc3C3C=CCC32)cc(Br)c1OC` (centres undefined) here?
**A.** Its calcium mobilization (agonist) is 0% (inactive).

**Q.** `CCC(=O)Oc1ccc(/C(CC)=C(\CC)c2ccc(OC(=O)CC)cc2)cc1` was tested. Which calcium mobilization (agonist) did it give?
**A.** Its calcium mobilization (agonist) is 0% (inactive).

**Q.** `CCC(=O)Oc1ccc(C(CC)C(CC)c2ccc(OC(=O)CC)cc2)cc1` (centres undefined) was tested. Which calcium mobilization (agonist) did it give?
**A.** Its calcium mobilization (agonist) is 0% (inactive).

**Q.** For `O=C(O)c1cc(Cl)c2c(c1)[C@@H]1C=CC[C@@H]1[C@H](c1ccc(S(=O)(=O)N3CCOCC3)cc1)N2`, which calcium mobilization (agonist) is on record?
**A.** Its calcium mobilization (agonist) is 0% (inactive).

**Q.** With `O=C(c1cc2ncc(Br)cn2n1)N1CCN(C(=O)c2ccco2)CC1` as the compound, how does the calcium mobilization (agonist) read?
**A.** The calcium mobilization (agonist) was 0% (inactive).

**Q.** With `CC(C)C1Nc2c(O)cc(Cl)c([N+](=O)[O-])c2C2C=CCC21` (centres undefined) as the compound, how does the calcium mobilization (agonist) read?
**A.** Its calcium mobilization (agonist) is 100%.

**Q.** For `COc1cccc(NS(=O)(=O)c2ccc3c(c2)C2C=CCC2C(c2ccc(C(=O)O)cc2)N3)c1` (centres undefined), which calcium mobilization (agonist) is on record?
**A.** Its calcium mobilization (agonist) is 0%.

**Q.** With `Fc1ccc2c(c1)C1C=CCC1C(c1cc3c(cc1Br)OCO3)N2` (centres undefined) as the compound, how does the calcium mobilization (agonist) read?
**A.** The calcium mobilization (agonist) was 100%.

**Q.** For `CCCNC(=O)c1ccc2c(c1)C1C3CCC(C3)C1C(c1ccccc1)N2` (centres undefined), which calcium mobilization (agonist) is on record?
**A.** Its calcium mobilization (agonist) is 100%.

**Q.** How did the calcium mobilization (agonist) turn out when `CN(C)C(=O)c1ccc2c(c1)C1C3CCC(C3)C1C(c1ccccc1)N2` (centres undefined) was run?
**A.** The calcium mobilization (agonist) was 100%.

**Q.** With `Cc1cc(C)cc(OCC(=O)Nc2ccc(N3CCCC3)cc2)c1` as the compound, how does the calcium mobilization (agonist) read?
**A.** Its calcium mobilization (agonist) is 0% (inactive).

**Q.** `CC(=O)c1ccc2c(c1)C1C=CCC1C(c1ccncc1)N2` (centres undefined) was tested. Which calcium mobilization (agonist) did it give?
**A.** Its calcium mobilization (agonist) is 100%.

**Q.** `COc1ccc(NC(=O)C(c2ccccc2)N(C)C(=O)c2ccc(=O)[nH]c2)cc1` (centres undefined) was tested. Which calcium mobilization (agonist) did it give?
**A.** Its calcium mobilization (agonist) is 0% (inactive).

**Q.** `Cc1ccc2c(c1)C1C=CCC1C(C(=O)O)N2` (centres undefined) was tested. Which calcium mobilization (agonist) did it give?
**A.** Its calcium mobilization (agonist) is 0% (inactive).

**Q.** For `O=C(OC1CCCCC1)c1ccc2c(c1)C1C=CCC1C(C(=O)O)N2` (centres undefined), which calcium mobilization (agonist) is on record?
**A.** The calcium mobilization (agonist) was 0% (inactive).

**Q.** `CCOC(=O)c1ccc2c(c1)C1C=CCC1C(C(=O)O)N2` (centres undefined) was tested. Which calcium mobilization (agonist) did it give?
**A.** Its calcium mobilization (agonist) is 0% (inactive).

**Q.** Which calcium mobilization (agonist) does the source give for `COc1cccc2c1NC(C(=O)O)C1CC=CC21` (centres undefined) here?
**A.** The calcium mobilization (agonist) was 0% (inactive).

**Q.** `CC(=O)Nc1ccc(OC(=O)CC2SC(=O)NC2=O)cc1` (centres undefined) was tested. Which calcium mobilization (agonist) did it give?
**A.** Its calcium mobilization (agonist) is 0% (inactive).

**Q.** With `O=C(NC1CC1)c1ccc2c(c1)C1C3CCC(C3)C1C(c1ccccc1)N2` (centres undefined) as the compound, how does the calcium mobilization (agonist) read?
**A.** Its calcium mobilization (agonist) is 100%.

**Q.** With `CCc1nc2sc3ccccc3c(=O)c2c(=O)n1Cc1ccco1` as the compound, how does the calcium mobilization (agonist) read?
**A.** Its calcium mobilization (agonist) is 0% (inactive).

**Q.** `CC(C)(C)NC(=O)c1ccc2c(c1)C1C3CCC(C3)C1C(c1ccccc1)N2` (centres undefined) was tested. Which calcium mobilization (agonist) did it give?
**A.** The calcium mobilization (agonist) was 100%.

**Q.** How did the calcium mobilization (agonist) turn out when `CC(=O)c1ccc2c(c1)C1C=CCC1C(c1ccc(S(=O)(=O)N3CCOCC3)cc1)N2` (centres undefined) was run?
**A.** The calcium mobilization (agonist) was 100%.

**Q.** With `NS(=O)(=O)c1ccc2c(c1)C1C=CCC1C(C1CC=CCC1)N2` (centres undefined) as the compound, how does the calcium mobilization (agonist) read?
**A.** Its calcium mobilization (agonist) is 0% (inactive).

**Q.** Which calcium mobilization (agonist) does the source give for `Cn1ccnc1SCC(=O)Nc1ccc2nc(SCC(=O)NC3CC3)sc2c1` here?
**A.** The calcium mobilization (agonist) was 0% (inactive).

**Q.** For `O=C(O)C1Nc2c(C(=O)N3CCOCC3)cccc2C2C=CCC12` (centres undefined), which calcium mobilization (agonist) is on record?
**A.** The calcium mobilization (agonist) was 0% (inactive).

**Q.** How did the calcium mobilization (agonist) turn out when `O=C(O)C1Nc2c(O)cccc2C2C=CCC12` (centres undefined) was run?
**A.** Its calcium mobilization (agonist) is 50% (inactive).

Reference: PubChem BioAssay AID1213 (NMMLSC, 2008)
